This passage reports EC50 results from patent US10059671B2, “Positive allosteric modulators of mGluR3” (Merck Patent GmbH, priority 2013, dated 2018).

SMILES strings stand for the structures.

In the assay the target is mGluR3 (Homo sapiens, UniProt Q14832). As to the kind of experiment: HEK293T-mGluR3-Gqi5 Calcium Mobilization Assay. The assay is classed as cell-based. The conditions noted are these: HEK293T-mGluR3-Gqi5 stable cell line; FLIPR Ca2+ fluorescence; with L-glutamate at EC20 concentration. On the procedure: II. Biological Assays HEK293T-mGluR3-Gqi5 Calcium Mobilization Assay Reagents: • Cells: HEK293T-mGluR3-Gqi5 Stable Cell Line (MultiSpan cat# CG1190) Culture Medium: • DMEM-GlutaMAX-1 (GIBCO #10566)+10% FBS (dialyzed & heat-inactivated, Hyclone cat# SH 30079.03), 2 mM sodium pyruvate (GIBCO #11360), 1 μg/ml puromycin (GIBCO #0399) and 250 ug/ml hygromycin (GIBCO #10687-010) HBSS (GIBCO #14025), add HEPES at 20 mM for a pH of 7.4 • 384 well cell plate: poly-D-lysine-coated, black/clear bottom microplates (Corning cat#3845) • Ca^2+ dye: FLIPR Ca-4 assay kit (Molecular Devices cat# R8142) • L-Glutamate (Sigma cat #2834) Cell Plating • Plate 8000 cells per well (1×10^5 cells/ml, in 80 μl) in a black, clear bottom, 384 well plate (Corning 3845). Incubate the cell plate for 30 minutes at RT and then incubate the cells 37° C., 5% CO2 for 16-24 hours before the assay. Ca^2+ Assay Using the FLIPR • Wash the cells with HBSS 3 times using the Bravo automated pipettor. The remaining volume of HBSS is 20 μl per well. • Add 20 μl of dye loading solution to each well and incubate the cells at 37° C., 5% CO2 for 1 hour. Prepare Compound Plate: • Serial dilute test compounds in DMSO at a 1:4 ratio, starting at al 0 mM concentration. Transfer 500 nl of the diluted compounds to a Matrix plate and add 30 μl of 37° C. HBSS, by Multidrop, to each well. The final starting concentration of the compounds is 33 uM. Prepare a solution of L-Glutamate in HBSS at 5× the EC20 concentration. Transfer to a 384 well Matrix plate using a Multidrop. The EC20 concentration is determined by a test plate before the screen. Assay: • Ca^2+ fluorescence is measured in the cells using the FLIPR Tetra (Molecular Devices). Following a baseline recording of the wells for 1 minute, add 10 ul of the diluted (5×) compounds to the cell plate and record for 3 minutes.
Chain of mGluR3 (Q14832 23-879): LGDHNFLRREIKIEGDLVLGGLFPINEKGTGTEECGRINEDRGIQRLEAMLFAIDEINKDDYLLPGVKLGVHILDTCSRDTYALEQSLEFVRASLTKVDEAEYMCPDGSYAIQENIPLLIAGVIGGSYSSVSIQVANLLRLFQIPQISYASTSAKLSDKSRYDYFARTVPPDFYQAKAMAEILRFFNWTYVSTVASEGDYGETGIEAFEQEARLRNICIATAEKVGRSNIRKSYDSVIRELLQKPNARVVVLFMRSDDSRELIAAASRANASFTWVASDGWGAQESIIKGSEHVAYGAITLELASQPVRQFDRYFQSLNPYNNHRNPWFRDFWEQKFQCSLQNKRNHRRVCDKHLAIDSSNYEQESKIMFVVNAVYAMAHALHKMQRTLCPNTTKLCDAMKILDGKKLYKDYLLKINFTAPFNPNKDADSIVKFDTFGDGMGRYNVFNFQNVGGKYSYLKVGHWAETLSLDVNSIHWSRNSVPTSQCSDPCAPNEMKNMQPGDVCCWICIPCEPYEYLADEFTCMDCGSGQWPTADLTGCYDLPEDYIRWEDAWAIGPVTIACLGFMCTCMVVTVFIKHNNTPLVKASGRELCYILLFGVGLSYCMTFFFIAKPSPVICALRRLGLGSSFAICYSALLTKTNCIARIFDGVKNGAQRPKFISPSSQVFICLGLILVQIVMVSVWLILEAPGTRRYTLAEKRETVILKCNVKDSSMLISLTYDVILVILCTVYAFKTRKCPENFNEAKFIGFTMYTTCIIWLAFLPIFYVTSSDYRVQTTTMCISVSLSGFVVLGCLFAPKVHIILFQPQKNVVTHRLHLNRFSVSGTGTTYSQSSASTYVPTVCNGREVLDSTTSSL
In the case of `CCCc1nc(NCCO)c(C#N)c2c1CCCC2` [Compound 6], the EC50 lay in the range of 1 to 10 µM.
Take `CCc1nc(N2CCOCC2)c(C#N)c2c1CCCC2` [Compound 3]: the concentration giving a half-maximal response (EC50) lay in the range of 1 to 10 µM.
For `CC(C)c1nc(N2CCOCC2)c(C#N)c2c1CCCC2` [Compound 1, 1-Isopropyl-3-morpholin-4-yl-5,6,7,8-tetrahydroisoquinoline-4-carbonitrile], the EC50 was < 1 µM.
For `CCCc1nc(NCCN2CCOCC2)c(C#N)c2c1CCCC2` [Compound 5], the EC50 was 1 to 10 µM.
On to `N#Cc1ccc(-c2ccccc2)nc1N1CCOCC1` [Compound 4], for which the EC50 was 1 to 10 µM.
Regarding `CCCc1nc(N2CCOCC2)c(C#N)c2c1COC(C)(C)C2` [Compound 2], the EC50 lay within 1 to 10 µM.
`CCc1nc(NCCCO)c(C#N)c2c1CCCC2` [Compound 7]: the EC50 was 1 to 10 µM.
Regarding `CCc1nc(NCCN)c(C#N)c2c1CSC(C)(C)C2` [Compound 8], the EC50 lay within 1 to 10 µM.
